Laboratory results taken from EP4711365A1 (Shanghai Hansoh Biomedical Co., Ltd., priority 2023, dated 2024).

Tests used:
[1] = molecular target: T1, human IL-17RA and IL-17A proteins (Homo sapiens, UniProt Q16552); assay: Competitive ELISA: blocking of binding between human IL-17RA and IL-17A; details: coated IL-17A, IL-17RA 5 nM
T1 sequence (Q16552 24-155): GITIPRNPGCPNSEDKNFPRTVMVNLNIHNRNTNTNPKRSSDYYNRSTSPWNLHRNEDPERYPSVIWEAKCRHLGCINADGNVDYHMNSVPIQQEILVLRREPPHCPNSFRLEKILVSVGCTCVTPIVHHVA
Procedure: Test example 1 Assay for competitive binding effect between compounds of the present invention and human IL-17 receptor for ligand
1. Experimental objective: to quantitatively determine the blocking effect of the compound on the binding between human IL-17RA and IL-17A proteins using competitive ELISA under in vitro conditions. 2. Experimental instruments and reagents: 2.1 Instruments:
2.2 Reagents: 3. Experimental method: IL-17A at 0.0625 µg/mL was coated in a 96-well plate at 4°C overnight at 100 µL per well. The plate was washed with PBST (300 µL/well x 4), and then blocked at 24°C for 2 h by adding 300 µL of ELISA Blocker blocking buffer to each well. The plate was further washed under the same conditions. 80 µL of PBS solution containing 1% BSA and 10 µL of 10× test compound solution were added to each well and mixed uniformly, and then the mixture was incubated at room temperature for 1 hour. After that, 10 µL of IL-17RA solution was added to a final concentration of 5 nM and mixed uniformly, and then the mixture was incubated at 24°C for 1 h. The corresponding concentration and volume of DMSO solution without compounds was added to positive control wells, and 1% BSA solution without IL-17RA was added to negative control wells.
After the plate was washed four times, 100 µL of the anti-Fc tag HRP-conjugated antibody was added, and the mixture was incubated at 37°C for 1 h. After the plate was washed four times, 100 µL of TMB substrate was added to each well, and the mixture was incubated at 37°C in the dark. After colour development was completed, the reaction was terminated by adding 100 µL of stop solution to each well, and the absorbance was measured at wavelengths of 450 nm and 570 nm using a microplate reader.
• 1) Inhibition rate (%): The original data (OD450-OD570) was calculated according to the following formula to obtain the inhibition rate. Inhibition rate% = [(average value of positive control wells - value of sample wells)/(average value of positive control wells - average value of negative control wells)] × 100, where the positive control wells are wells without compounds, and the negative control wells are wells without IL-17RA protein solution. • 2) Curve fitting: Log(inhibitor) vs. response -- Variable slope (four parameters) in GraphPad Prism 8 was used for fitting equation analysis of the compound concentration and the corresponding inhibition rate, and the curve was fitted to obtain the IC50 value of the compound. The fitting calculation equation was Y = Bottom + (Top - Bottom) / (1 + 10^((LogIC50 - X) * HillSlope)).

[2] = tested on: Groα secretion by HT-29 cells; assay: Inhibition of Groα secretion by HT-29 cells stimulated with IL-17A (ELISA); format: cell-based, Human; details: Homo sapiens, IL-17A 30 ng/ml, 48 hours, Groα in supernatant
Summary of the method: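 HT-29 cells (10,000/well) were cultured overnight, then given compound pre-mixed 30 min with IL-17A (final 30 ng/ml) and incubated 48 hours at 37°C. Groα in supernatant was measured by ELISA at 450 nm; inhibition relative to IL-17A-stimulated control, IC50 from four-parameter fit.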

[3] = Pharmacokinetic assay in Wistar rats, oral; details: rat, plasma, 30 mg/kg
Procedure: Experimental objective: to study the pharmacokinetic behaviours of the compounds of the present invention in the body (plasma) of Wistar rats as test animals after oral administration at a dose of 30 mg/kg. • 2. Experimental scheme • 2.1 Test drugs: the examples of the present invention, prepared in house. • 2.2 Test animals: Wistar rats (female, 3 rats per group), from Beijing Vital River Laboratory Animal Technology Co., Ltd., with the animal production license no.
Solutol HS15 was melted in a water bath at 50-60°C, and then 50 mL of the melted Solutol HS15 was added to 450 mL of ultrapure water. The mixture was stirred and sonicated to obtain 500 mL of 10% Solutol HS15 solution. The compound was weighed, and according to the total administration volume, 30% PEG solution was first added. The mixture was shaken uniformly and sonicated until a clear solution was obtained. Subsequently, 70% (10% Solutol) in water was added, resulting in a colourless and clear solution with a concentration of 3.0 mg/mL.
2.4 Administration scheme: After overnight fasting, 3 female Wistar rats per group were administered orally (PO) at a dose of 30 mg/kg with an administration volume of 10 mL/kg.
• 1) To 50 uL of plasma sample was added 250 uL of acetonitrile for precipitation, and the mixture was mixed and then centrifuged at 4°C at 4000 rpm for 20 minutes. • 2) The treated supernatant solution was taken and subjected to LC/MS/MS to analyse the concentration of the test compounds. LC/MS/MS analysis instrument: AB Sciex API-4000 Qtrap-Shimadzu Controller-CBM20A.
• Chromatographic column: Waters Xbridge C18 3.5 um 2.1*50 mm • Mobile phase: solution A: 0.1% formic acid in water, and solution B: 0.1% formic acid in acetonitrile • Flow rate: 0.6 mL/min • Elution time: 0-3.5 minutes, with eluents as follows:

Row | SMILES | IC50 [1] [nM] | IC50 [2] [nM] | AUC(0-t) [3] [ng·h/mL] | Cmax [3] [ng/mL] | Tmax [3] [h] | half-life [3] [h]
1 | C[C@H]1CC[C@H]([C@H](NC(=O)C2(F)CC2)C(=O)Nc2ncc([C@@H](CN3CCC(C(F)F)CC3)N3CC(F)(F)CNC3=O)s2)CC1 [Example 770] | 7 | 3.4 | 11600 | 1350 | 4 | 3.5
2 | CC1CCC(C(NC(=O)C2(F)CC2)C(=O)Nc2ncc(C(CN3C(C)COCC3C)N3CC(F)(F)CNC3=O)s2)CC1 (stereo not drawn) [Example 739] | 5 | 3 | 10300 | 1940 | 2 | 2.5
3 | C[C@@H]1CN(C[C@H](c2cnc(NC(=O)[C@@H](NC(=O)C3(F)CC3)[C@H]3CC[C@H](C)CC3)s2)N2CC(F)(F)CNC2=O)[C@@H](C)CO1 [Example 731] | 6.6 | 6 | 14300 | 1840 | 2 | 2.3
4 | [2H]C([2H])([2H])OC1(C)CCN(C[C@H](c2cnc(NC(=O)[C@@H](NC(=O)C3(F)CC3)[C@H]3CC[C@H](C)CC3)s2)N2CC(F)(F)CNC2=O)CC1 [Example 787] | 9 | 8.9 | 18800 | 2330 | 2 | 2.4
5 | C[C@H]1CC[C@H]([C@H](NC(=O)C2(F)CC2)C(=O)Nc2ncc([C@@H](CN3CCC(F)(F)CC3)N3CC(F)(F)CNC3=O)s2)CC1 [Example 763, N-((S)-2-((5-((R)-1-(5,5-difluoro-2-oxotetrahydropyrimidin-1(2H)-yl)-2-(4,4-difluoropiperidin-1-yl)ethyl)thiazol-2-yl)amino)-1-((1r,4S)-4-methylcyclohexyl)-2-oxoethyl)-1-fluorocyclopropane-1-carboxamide] | 6 | 4.5 | 15900 | 1480 | 4 | 3.4
6 | C[C@@H]1CN(C[C@H](c2cnc(NC(=O)[C@@H](NC(=O)C3(F)CC3)[C@H]3CC[C@H](C)CC3)s2)N2CC(F)(F)CNC2=O)[C@H](C)CO1 [Example 736, N-((S)-2-((5-((R)-1-(5,5-difluoro-2-oxotetrahydropyrimidin-1(2H)-yl)-2-((2R,5R)-2,5-dimethylmorpholino)ethyl)thiazol-2-yl)amino)-1-((1r,4S)-4-methylcyclohexyl)-2-oxoethyl)-1-fluorocyclopropane-1-carboxamide] | 3.6 | 1 | 10800 | 1310 | 2 | 2.4
7 | C[C@H]1COCCN1C[C@H](c1cnc(NC(=O)[C@@H](NC(=O)C2(F)CC2)[C@H]2CC[C@H](C)CC2)s1)N1CC(F)(F)CNC1=O [Example 1014, N-((S)-2-((5-((R)-1-(5,5-difluoro-2-oxotetrahydropyrimidin-1(2H)-yl)-2-((S)-3-methylmorpholino)ethyl)thiazol-2-yl)amino)-1-((1r,4S)-4-methylcyclohexyl)-2-oxoethyl)-1-fluorocyclopropane-1-carboxamide] | 7 | 8 | 12800 | 1670 | 4 | 2.4
8 | CCc1nonc1C(=O)N[C@H](C(=O)Nc1ncc([C@@H](COC)N2CC(F)(F)CNC2=O)s1)[C@H]1CC[C@H](C)CC1 [Example 556] | 1.8 | 4.6 | 22100 | 2390 | 2 | 2.3
9 | C[C@@H]1CN(C[C@H](c2cnc(NC(=O)[C@@H](NC(=O)C3(F)CC3)[C@H]3CC[C@H](C)CC3)s2)N2CC(F)(F)CNC2=O)CCO1 [Example 1012, N-((S)-2-((5-((R)-1-(5,5-difluoro-2-oxotetrahydropyrimidin-1(2H)-yl)-2-((R)-2-methylmorpholino)ethyl)thiazol-2-yl)amino)-1-((1r,4S)-4-methylcyclohexyl)-2-oxoethyl)-1-fluorocyclopropane-1-carboxamide] | 6 | 3 | 14200 | 2220 | 2 | 2.3
10 | C[C@H]1CC(F)(F)CCN1C[C@H](c1cnc(NC(=O)[C@@H](NC(=O)C2(F)CC2)[C@H]2CC[C@H](C)CC2)s1)N1CC(F)(F)CNC1=O [Example 764] | 7 | 7 | 11700 | 1090 | 4 | 4.1
